Experimental data: US20070287666A1, “Modulator of gamma-secretase” (priority 2006, published 2007)

Experiments:
γ-secretase [1] = experiment: Aβ assay (ELISA, immunoprecipitation-western blotting) of conditioned medium from whole cells; assay type: cell-based, human; settings: whole cells or cell-free γ-secretase assays; in words
Method: Aβ40 and Aβ42 levels were measured by ELISA and immunoprecipitation-western blotting as described previously, with the use of 12-24-h-conditioned medium collected from native HEK-293 cells or from HEK-293 cells stably overexpressing APP (APPswedish or APPwt) (3,24). They were resuspended in Assay Buffer (10 mM KOAc, 1.5 mM MgCl2, protease inhibitors (Roche), 75 mM sodium citrate, pH 6.4) and incubated at 0° C. or 37° C. for 2 or 4 hours (24). CHAPSO-solubilized membrane fractions from above cells were subjected to cell free γ-secretase assay as described below without addition of the C100-Flag substrate. Following adjustment to RIPA buffer, Aβ were captured by immmunoprecipitation with 6E10 antibody (Signet) and immunoblotted as described previously (24). ε-stubs were detected by Western blotting with anti-APP-CT antibody (Sigma).

TMP21 = experiment: Western blotting of target protein expression after siRNA knockdown; assay type: cell-based, human; settings: whole cells; in words
Method: siRNA-based knockdowns of target proteins were performed as described, in HEK-293 or blastocyst-derived cells (30). The oligonucleotide sequences are available in Supplementary Information.
siRNA-based knockdowns of target proteins were carried out as described (30). […] As negative controls, we used a mixture of four pooled scrambled siRNAs and mock transfections without siRNA. The expression level of target proteins was monitored by Western blotting with polyclonal anti-TMP21 or anti-p24a antibodies. Each of the individual oligonucleotide pairs where independently shown to suppress the relevant target protein (FIG. 8).

ε-secretase = experiment: Cadherin processing assay; assay type: biochemical; settings: in words
Method: Notch and cadherin cleavage assays were performed as described previously (27, 29).
Cadherin processing assay: Assays were performed as previously described (29). Briefly, cells were resuspended in 0.5 ml/35-mm dish of hypotonic buffer (10 mM MOPS, pH 7.0, 10 mM KCl) and homogenized on ice. A post-nuclear supernatant was prepared by centrifugation at 1000×g for 15 minutes at 4° C. Crude membranes were isolated from the post-nuclear supernatant by centrifugation at 16,000×g for 40 minutes at 4° C. The membranes were then resuspended in 25 μl of assay buffer (150 mM sodium citrate, pH 6.4, 1× Complete protease inhibitor cocktail, Roche), and incubated at 37° C. for 4 hours in the presence or absence of γ-secretase inhibitor (L-685,458, 1 μM). Samples were then analyzed by immunoblotting using C32 anti-N-cadherin and C36 anti-E-cadherin antibodies (BD Transduction Laboratories).

γ-secretase [2] = molecular target: T1, γ-secretase (Homo sapiens, UniProt P49768); experiment: γ-secretase reconstituted in yeast, APPC1-55/Gal4 lacZ reporter assay; assay type: cell-based, S. cerevisiae; design: expressed in transfected cells; host or cells: S. cerevisiae (strains PMY1 and DEY1); settings: co-expression with PS1, NCT, APH-1, PEN-2; wt or V717I APP reporter; in words
Description: Core γ-secretase enzyme activity of the mammalian CNS was reconstituted in S. cerevisiae by co-expression of human presenilin 1 (PS1), nicastrin (NCT), APH-1 and PEN-2 in accordance with the method described by Edbauer (12), with activity measured via endoproteolytic release of a Gal4 transcriptional activator from an APPC1-55 juxtamembrane region and trans activation of a β-galactosidase reporter gene. While a starting configuration performed slightly above the baseline of cells lacking γ-secretase subunits, non-fermentable carbon sources favoring oxidative metabolism increased output up to 100-fold and allowed profiling of the system. As in mammalian cells, activity was greater with wt PS1 than wt PS2, sensitive to missense mutations of APP substrate near the Aβ42 site, and was modulated by the membrane protein TMP21.
Besides the production of Aβ-related peptide fragments identified by mass spectroscopy, enzyme activity was measured via a transcriptional reporter assay wherein endoproteolysis of a membrane-tethered APPC1-55/Gal4 fusion protein results in the release of a Gal4 transcriptional activator capable of driving a reporter gene (lacZ) with a colorimetric output. Effect of TMP21, Erv25p and Emp24p on reporter activity and PS1 processing

γ-secretase [3] = molecular target: T1, γ-secretase; experiment: Cell-free γ-secretase assay with immunopurified PS1 complexes and C100-Flag substrate; assay type: biochemical; design: PS1 complex was isolated by immunoprecipitation from CHAPSO extracted membranes; endogenous in cells; host or cells: HEK-293 (also SHSY-5Y) CHAPSO-solubilized membranes, anti-PS1 (A4) immunoprecipitate; settings: exogenous protein added to immunopurified TMP21-deficient PS1 complexes; in words
Method: Cell-free γ-secretase assays with endogenous APP were performed on microsome membranes from HEK-293 cells stably over expressing APPswedish with or without TMP21 RNAi treatments as described previously (24). ε-stubs were detected by western blotting with anti-APP-CT antibody (Sigma). Cell-free γ-secretase assay was performed as described (7, 13), with exogenous APP-C100 as the substrate was performed with recombinant APP-C100 peptides, wherein PS1 complex was isolated by immunoprecipitation from CHAPSO extracted membranes and combined with the recombinant C100 substrate and the generation of Aβ is determined by ELISA and AICD production is monitored by western blotting. More particularly, the peptides were generated from a prokaryotic expression vector encoding the C-terminal 100 amino acids (596-695) of human APP (695-residue isoform) followed by Flag and His6 sequences (C100-Flag-His6). This was generated by PCR and cloning into pQE60 (Qiagen). […] The generated Aβ was analyzed by immunoblotting or ELISA (Biosource).
Solubilized γ-secretase was prepared as described (7,13). […] Following addition of the C100-Flag substrate (˜0.5 μM) to 50 μl of the solubilized γ-secretase preparation the reaction mixture was incubated for 6 hrs at 37° C. and Aβ products detected by ELISA and Western blotting. […]

p24a siRNA: p24a siRNA oligos (SEQ ID NO:12, 13) and p24a pooled oligos, Dharmacon (chain 1 AACCGGATGTCCACCATGACT; chain 2 ACAGAGCCATCAACGACAA; bought from Dharmacon, further chemistry not given here)
effect on Aβ production (γ-secretase [1]): no effect | total cellular TMP21 levels / expression (TMP21): decrease

CC(C)C[C@H](NC(=O)[C@H](Cc1ccccc1)C[C@@H](O)[C@H](Cc1ccccc1)NC(=O)OC(C)(C)C)C(=O)N[C@@H](Cc1ccccc1)C(N)=O [L685,458]
ε-cleavage of E-cadherin or N-cadherin substrates (CAD/CTF1) to CAD/CTF2 (ε-secretase): specifically inhibited

B1: TMP21: 219-amino-acid type 1 transmembrane protein, member of the p24 cargo-protein family (accession number Q9D1D4); expressed from cDNA (protein, UniProt Q9D1D4 32-219, looked up)
Transmembrane emp24 …: ISFHLPVNSRKCLREEIHKDLLVTGAYEITDQSGGAGGLRTHLKITDSAGHILYAKEDATKGKFAFTTEDYDMFEVCFESKGTGRIPDQLVILDMKHGVEAKNYEEIAKVEKLKPLEVELRRLEDLSESIVNDFAYMKKREEEMRDTNESTNTRVLYFSIFSMFCLIGLATWQVFYLRRFFKAKKLIE
effect on Aβ production (γ-secretase [1]): no discernible effect | lacZ reporter activity (γ-secretase [2]): markedly reduced

B2: TMP21-Flag: TMP21 tagged at the C terminus with the Flag epitope, immunopurified from HEK-293 cells (protein)
chain: ISFHLPINSRKCLREEIHKDLLVTGAYEISDQSGGAGGLRSHLKITDSAGHILYSKEDATKGKFAFTTEDYDMFEVCFESKGTGRIPDQLVILDMKHGVEAKNYEEIAKVEKLKPLEVELRRLEDLSESIVNDFAYMKKREEEMRDTNESTNTRVLYFSIFSMFCLIGLATWQVFYLRRFFKAKKLIE
modifications: left off: small tags and cut ends
Aβ production after complementation of TMP21-deficient PS1 complexes (γ-secretase [3]): reverted to normal
